Here are results for 24 compounds from PubChem BioAssay AID192 (DTP/NCI, 2004).

Inconclusive results and toxic doses are left out.

The subject of this assay is BDF1 mice, B16 melanoma ip, median survival T/C. As to the kind of experiment: NCI In Vivo Anticancer Drug Screen. Data for tumor model B16 Melanoma (intraperitoneal) in B6D2F1 (BDF1) mice. The settings on record: endpoint: median survival time, higher = longer survival. In short, it runs like this:
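Antitumor activity is assessed in mice bearing a transplanted tumor, with survival or tumor size compared against vehicle-dosed controls and expressed as T/C.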

[1] abbreviates: dose: 100.0 mg/kg/injection, schedule: Q01DX009 (ip), vehicle: Klucel (hydroxypropylcellulose) (HPC).
Where [2] appears, read: dose: 200.0 mg/kg/injection, schedule: Q01DX009 (ip), vehicle: Klucel (hydroxypropylcellulose) (HPC).
The mark [3] stands for this setting: dose: 400.0 mg/kg/injection, schedule: Q01DX009 (ip), vehicle: Klucel (hydroxypropylcellulose) (HPC).
Setting [4] is: dose: 100.0 mg/kg/injection, schedule: Q01DX009 (ip), vehicle: saline.
Setting [5] is: dose: 200.0 mg/kg/injection, schedule: Q01DX009 (ip), vehicle: saline.
Where [6] appears, read: dose: 400.0 mg/kg/injection, schedule: Q01DX009 (ip), vehicle: saline.
The mark [7] stands for this setting: dose: 50.0 mg/kg/injection, schedule: Q01DX009 (ip), vehicle: saline with Tween-80.
[8] abbreviates: dose: 100.0 mg/kg/injection, schedule: Q01DX009 (ip), vehicle: saline with Tween-80.
[9] abbreviates: dose: 0.39 mg/kg/injection, schedule: Q01DX009 (ip), vehicle: saline with Tween-80.
[10] abbreviates: dose: 0.78 mg/kg/injection, schedule: Q01DX009 (ip), vehicle: saline with Tween-80.
[11] abbreviates: dose: 1.5 mg/kg/injection, schedule: Q01DX009 (ip), vehicle: saline with Tween-80.
The mark [12] stands for this setting: dose: 3.0 mg/kg/injection, schedule: Q01DX009 (ip), vehicle: saline with Tween-80.
[13] abbreviates: dose: 3.12 mg/kg/injection, schedule: Q01DX009 (ip), vehicle: saline with Tween-80.
Setting [14] is: dose: 25.0 mg/kg/injection, schedule: Q01DX009 (ip), vehicle: saline.
Setting [15] is: dose: 50.0 mg/kg/injection, schedule: Q01DX009 (ip), vehicle: saline.
Setting [16] is: dose: 12.5 mg/kg/injection, schedule: Q01DX009 (ip), vehicle: saline with Tween-80.
Where [17] appears, read: dose: 25.0 mg/kg/injection, schedule: Q01DX009 (ip), vehicle: saline with Tween-80.
Setting [18] is: dose: 6.25 mg/kg/injection, schedule: Q01DX009 (ip), vehicle: saline with Tween-80.

Turning to `CCOC(=O)C[Si](C)(C)C`, the T/C was 102 % of control (dose: 25.0 mg/kg/injection, schedule: Q01DX009 (ip), vehicle: Klucel (hydroxypropylcellulose) (HPC)); 108 % of control (dose: 50.0 mg/kg/injection, schedule: Q01DX009 (ip), vehicle: Klucel (hydroxypropylcellulose) (HPC)); 86 % of control under setting [1]; 107 % of control under setting [2]; 97 % of control under setting [3].
`CC(O)CN1CC(C)OC(C)C1` (stereo unspecified): the T/C was 97 % of control under setting [4], 90 % of control under setting [5] and 97 % of control under setting [6].
As to `CCOC(=O)C(Cc1c[nH]c2cc(N)ccc12)(NC(C)=O)C(=O)OCC`, the T/C under setting [1] was 89 % of control and the T/C under setting [2] is 87 % of control.
With `CCCNCCNc1ccc(NCCNCCC)c2c1C(=O)c1ccccc1C2=O`, the T/C runs as follows: (dose: 16.0 mg/kg/injection, schedule: Q01DX009 (ip), vehicle: acid diluted with saline) 112 % of control; (dose: 32.0 mg/kg/injection, schedule: Q01DX009 (ip), vehicle: acid diluted with saline) 99 % of control.
In the case of `COc1cccc(NC(=O)Nc2ccccc2Cl)c1`, the T/C is 96 % of control (dose: 100.0 mg/kg/injection, schedule: Q01DX009 (ip), vehicle: gum acacia); 96 % of control (dose: 200.0 mg/kg/injection, schedule: Q01DX009 (ip), vehicle: gum acacia); 88 % of control (dose: 400.0 mg/kg/injection, schedule: Q01DX009 (ip), vehicle: gum acacia).
Regarding `CCCCC(SC(CC)(C(C)=O)c1ccccc1)C(N)=O` (stereo unspecified), the T/C under setting [7] is 89 % of control; the T/C under setting [8] is 108 % of control; the T/C (dose: 200.0 mg/kg/injection, schedule: Q01DX009 (ip), vehicle: saline with Tween-80) is 87 % of control; the T/C (dose: 400.0 mg/kg/injection, schedule: Q01DX009 (ip), vehicle: saline with Tween-80) is 92 % of control.
Take `CC[CH2][Pb]([CH2]CC)([CH2]CC)[O]C(=O)C(F)(F)F`: the T/C is 93 % of control under setting [9]; 111 % of control under setting [10]; 104 % of control under setting [11]; 98 % of control under setting [12]; 86 % of control under setting [13].
With `C(=N\OCc1ccccc1)/c1ccccn1`, the T/C under setting [1] is 101 % of control, the T/C under setting [2] is 101 % of control and the T/C under setting [3] was 97 % of control.
For `ClC(Cl)(Cl)c1ccc(C(Cl)(Cl)Cl)cc1`, the T/C reads like this: (dose: 50.0 mg/kg/injection, schedule: Q04DX003 (ip), vehicle: saline) 102 % of control; (dose: 100.0 mg/kg/injection, schedule: Q04DX003 (ip), vehicle: saline) 95 % of control; (dose: 200.0 mg/kg/injection, schedule: Q04DX003 (ip), vehicle: saline) 95 % of control.
Turning to `NN1CCCC1`, the T/C by setting is: under setting [14], 110 % of control; under setting [15], 102 % of control; under setting [4], 94 % of control.
On to `Cc1cc(O)c2c(c1O)C(=O)C13C(=C2O)C(=O)C2C(O)C1C1C(O)C3C(=O)C3=C(O)c4c(O)cc(C)c(O)c4C(=O)C321` (stereo unspecified), for which the T/C is, setting by setting: (dose: 0.19 mg/kg/injection, schedule: Q01DX009 (ip), vehicle: saline with Tween-80) 105 % of control; under setting [9], 114 % of control; under setting [10], 121 % of control.
With `OCc1cc2c([nH]c3ccccc32)c(C(O)CO)n1` (stereo unspecified), the T/C (dose: 20.0 mg/kg/injection, schedule: Q01DX009 (ip), vehicle: saline with Tween-80) was 102 % of control; the T/C (dose: 40.0 mg/kg/injection, schedule: Q01DX009 (ip), vehicle: saline with Tween-80) is 99 % of control; the T/C (dose: 80.0 mg/kg/injection, schedule: Q01DX009 (ip), vehicle: saline with Tween-80) is 97 % of control.
Regarding `CC(C)C1=CC2=CCC3C(C)(CN)CCCC3(C)C2CC1CCN` (stereo unspecified), the T/C by setting is: (dose: 1.25 mg/kg/injection, schedule: Q01DX009 (ip), vehicle: saline with Tween-80) 100 % of control; (dose: 1.25 mg/kg/injection, schedule: Q04DX003 (ip), vehicle: saline with Tween-80) 104 % of control; (dose: 2.5 mg/kg/injection, schedule: Q01DX009 (ip), vehicle: saline with Tween-80) 99 % of control; (dose: 2.5 mg/kg/injection, schedule: Q04DX003 (ip), vehicle: saline with Tween-80) 88 % of control; (dose: 5.0 mg/kg/injection, schedule: Q01DX009 (ip), vehicle: saline with Tween-80) 91 % of control; (dose: 5.0 mg/kg/injection, schedule: Q04DX003 (ip), vehicle: saline with Tween-80) 90 % of control.
For the compound `CCC(C)(C[NH-])C[NH-].[Cl][Pt+2][Cl]`, the T/C was 159 % of control (dose: 0.5 mg/kg/injection, schedule: Q01DX009 (ip), vehicle: carboxymethylcellulose (CMC)) and 180 % of control (dose: 1.0 mg/kg/injection, schedule: Q01DX009 (ip), vehicle: carboxymethylcellulose (CMC)).
With `O=C1CN(CN2CCOCC2)C(=O)CN1CN1CCOCC1`, the T/C is, setting by setting: (dose: 12.5 mg/kg/injection, schedule: Q01DX009 (ip), vehicle: saline) 98 % of control; under setting [14], 102 % of control; under setting [15], 112 % of control; under setting [4], 104 % of control; under setting [5], 101 % of control.
For `S=P(Nc1ccccc1)(Nc1ccccc1)c1ccccc1`, the T/C was 104 % of control under setting [1], 96 % of control under setting [2] and 87 % of control under setting [3].
With `COc1cc(OC)c2c(O)c3c(c(-c4ccc5cc6c(c(O)c5c4O)C(=O)CC(C)(O)C6)c2c1)CC(C)OC3C` (stereo unspecified), the T/C by setting is: (dose: 0.5 mg/kg/injection, schedule: Q01DX009 (ip), vehicle: Klucel (hydroxypropylcellulose) (HPC)) 94 % of control; (dose: 1.0 mg/kg/injection, schedule: Q01DX009 (ip), vehicle: Klucel (hydroxypropylcellulose) (HPC)) 102 % of control; (dose: 2.0 mg/kg/injection, schedule: Q01DX009 (ip), vehicle: Klucel (hydroxypropylcellulose) (HPC)) 111 % of control.
With `O=C(CCl)N1CCC2(CC1)SSC1(CCN(C(=O)CCl)CC1)S2`, the T/C is, setting by setting: under setting [16], 100 % of control; under setting [17], 90 % of control.
Regarding `COc1cc(C(N)=O)cc(OC)c1O`, the T/C reads like this: under setting [4], 115 % of control; under setting [5], 110 % of control; under setting [6], 118 % of control.
Regarding `N#C[CH2][Sn]([I])([c]1ccccc1)[c]1ccccc1`, the T/C under setting [13] was 93 % of control, the T/C under setting [18] was 87 % of control and the T/C under setting [16] is 86 % of control.
For the compound `Clc1ccc2nc(CBr)cnc2c1`, the T/C runs as follows: (dose: 0.75 mg/kg/injection, schedule: Q01DX009 (ip), vehicle: saline with Tween-80) 97 % of control; under setting [11], 86 % of control; under setting [12], 97 % of control; (dose: 6.0 mg/kg/injection, schedule: Q01DX009 (ip), vehicle: saline with Tween-80) 88 % of control; under setting [18], 87 % of control.
Turning to `C=C1C(=O)O[C@@H]2C[C@@H](C)[C@@H]3[C@@H](OC4OC(COC(C)=O)C(O)C(O)C4O)CC(=O)[C@@]3(C)C[C@H]12` (stereo partly specified), the T/C (dose: 6.4 mg/kg/injection, schedule: Q01DX009 (ip), vehicle: saline) was 95 % of control; the T/C (dose: 9.6 mg/kg/injection, schedule: Q01DX009 (ip), vehicle: saline) is 100 % of control; the T/C (dose: 14.0 mg/kg/injection, schedule: Q01DX009 (ip), vehicle: saline) was 100 % of control; the T/C (dose: 22.0 mg/kg/injection, schedule: Q01DX009 (ip), vehicle: saline) is 100 % of control.
Consider `CCN(CC)CCOC(=O)CC1CCCCC1`, for which the T/C is, setting by setting: under setting [15], 99 % of control; under setting [4], 96 % of control; under setting [5], 95 % of control.
On to `CCNc1nc(NCC)nc(SC)n1`, for which the T/C by setting is: under setting [17], 97 % of control; under setting [7], 87 % of control; under setting [8], 105 % of control.
